Experimental data taken from patent US8785452B2, “Anti-infective compounds” (priority 2008, dated 2014).

Tested on: M. tuberculosis clinical isolates
Format: cell-based, Mycobacterium tuberculosis
Settings: multi-drug-resistant and extensive-drug-resistant isolates

Cc1cccn2c(=O)c(C=O)c(Nc3cccc(Cl)c3)nc12 [compound 133, 2-(3-Chlorophenylamino)-9-methyl-4-oxo-4H-pyrido[1,2-a]pyrimidine-3-carbaldehyde]
activity (MIC values) against MDR and XDR clinical isolates, in words: within the micromolar range
